The record followed here is patent publication US20220402950A1, “SUBSTITUTED BENZIMIDAZOLES AS PAD4 INHIBITORS” (BRISTOL-MYERS SQUIBB COMPANY, priority 2018, published 2022).

SMILES strings stand for the structures. Where two headings read alike, the source gives them in different places.

In the assay the target is human PAD4 (hPAD4) (Homo sapiens, UniProt Q9UM07). The assay can be described thus: RFMS Human PAD4 Functional Assay. It is filed as biochemical. As to conditions: 5 nM hPAD4, 250 μM BAEE. Put shortly: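 RapidFire ESI-MS quantification, normalised to a modified-citrulline internal standard, after phenyl glyoxal (final 4 mM) derivatisation of the TCA-quenched reaction. The enzyme (10 nM) sat 30 min with compound (up to 50 μM final) before 500 μM BAEE (as added) started a 90 min, 37 °C reaction. Buffer: HEPES pH 7.5, 50 μM calcium, 5 μM TPEN.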
Sequence of human PAD4 (hPAD4) (Q9UM07 whole entry): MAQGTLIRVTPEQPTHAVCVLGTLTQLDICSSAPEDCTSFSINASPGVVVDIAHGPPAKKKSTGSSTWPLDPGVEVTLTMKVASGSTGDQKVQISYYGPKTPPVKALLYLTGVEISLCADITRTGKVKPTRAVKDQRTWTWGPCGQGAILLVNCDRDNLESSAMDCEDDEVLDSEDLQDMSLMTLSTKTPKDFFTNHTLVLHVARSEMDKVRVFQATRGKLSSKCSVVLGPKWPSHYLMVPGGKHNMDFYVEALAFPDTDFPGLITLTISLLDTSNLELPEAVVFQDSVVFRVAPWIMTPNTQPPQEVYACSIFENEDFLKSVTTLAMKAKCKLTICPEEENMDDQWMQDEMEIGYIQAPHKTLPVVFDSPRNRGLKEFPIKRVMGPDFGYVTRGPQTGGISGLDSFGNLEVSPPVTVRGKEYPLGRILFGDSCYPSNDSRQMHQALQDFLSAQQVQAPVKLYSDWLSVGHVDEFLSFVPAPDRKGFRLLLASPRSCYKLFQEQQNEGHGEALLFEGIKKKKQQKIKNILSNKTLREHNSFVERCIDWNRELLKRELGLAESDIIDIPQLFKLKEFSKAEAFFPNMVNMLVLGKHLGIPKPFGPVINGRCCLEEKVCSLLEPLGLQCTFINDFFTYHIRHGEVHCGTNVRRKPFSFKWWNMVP

The mark [1] stands for this setting: hPAD4 RFMS IC50, human PAD4, rapid-fire mass spectrum (RFMS) assay.

Under setting [1], `COc1cc(C(=O)N2C[C@H]3CC[C@@H]2[C@@H]3N)cc2nc(-c3cc4cccc(NCCC(C)(C)O)c4n3CC3CC3)n(C)c12` [Example 169, ((1R,4R,7R)-7-amino-2-azabicyclo[2.2.1]heptan-2-yl)(2-(1-(cyclopropylmethyl)-7-((3-hydroxy-3-methylbutyl)amino)-1H-indol-2-yl)-7-methoxy-1-methyl-1H-benzo[d]imidazol-5-yl)methanone] yielded an IC50 of 198 nM.

The compound `COc1cc(C(=O)N2CC3CCC2[C@@H]3N)cc2nc(-c3cc4cccc(-c5cccnc5)c4n3CC3CC3)n(C)c12` (stereo partly drawn) [Example 134, ((7R)-7-amino-2-azabicyclo[2.2.1]heptan-2-yl)(2-(1-(cyclopropylmethyl)-7-(pyridin-3-yl)-1H-indol-2-yl)-7-methoxy-1-methyl-1H-benzo[d]imidazol-5-yl)methanone] registered a half-maximal inhibitory concentration (IC50) under setting [1] of 155 nM. `COc1cc(C(=O)N2C[C@H]3CC[C@@H]2[C@@H]3N)cc2nc(-c3cc4cccc(C5CN(C(=O)Nc6ccccc6)C5)c4n3CC3CC3)n(C)c12` [Example 70, 3-(2-{5-[(1R,4R,7R)-7-amino-2-azabicyclo[2.2.1]heptane-2-carbonyl]-7-methoxy-1-methyl-1H-1,3-benzodiazol-2-yl}-1-(cyclopropylmethyl)-1H-indol-7-yl)-N-phenylazetidine-1-carboxamide]: under setting [1], it took 15 nM to reach half-maximal inhibition (IC50). Consider `COc1cc(C(=O)N2C[C@H]3CC[C@@H]2[C@@H]3N)cc2nc(-c3cc4cccc(-c5ccc6c(c5)CC(=O)N6)c4n3CC3CC3)n(C)c12` [Example 97, 2′-{5-[(1R,4R,7R)-7-amino-2-azabicyclo[2.2.1]heptane-2-carbonyl]-7-methoxy-1-methyl-1H-1,3-benzodiazol-2-yl}-1′-(cyclopropylmethyl)-2,3-dihydro-1H,1′H-[5,7′-biindole]-2-one], for which, under setting [1], inhibition was half-maximal at 23 nM (IC50).

Regarding `COc1cc(C(=O)N2C[C@H]3CC[C@@H]2[C@@H]3N)cc2nc(-c3cc4cccc(C5CC(C(=O)N(C)C)C5)c4n3CC3CC3)n(C)c12` (single isomer, unassigned) [Example 47], the IC50 under setting [1] was 13 nM. In turn, `COc1cc(C(=O)N2C[C@H]3CC[C@@H]2[C@@H]3N)cc2nc(-c3cc4cccc(-c5ccc(O)c(Cl)c5)c4n3CC3CC3)n(C)c12` [Example 92, 4-(2-{5-[(1R,4R,7R)-7-amino-2-azabicyclo[2.2.1]heptane-2-carbonyl]-7-methoxy-1-methyl-1H-1,3-benzodiazol-2-yl}-1-(cyclopropylmethyl)-1H-indol-7-yl)-2-chlorophenol] yielded an IC50 under setting [1] of 58 nM.

`COc1cc(C(=O)N2C[C@H]3CC[C@@H]2[C@@H]3N)cc2nc(-c3cc4cccc(C5CCS(=O)(=O)C5)c4n3CC3CC3)n(C)c12` (stereo partly drawn) [Example 30, ((1R,4R,7R)-7-amino-2-azabicyclo[2.2.1]heptan-2-yl)(2-(1-(cyclopropylmethyl)-7-(1,1-dioxidotetrahydrothiophen-3-yl)-1H-indol-2-yl)-7-methoxy-1-methyl-1H-benzo[d]imidazol-5-yl)methanone] yielded an IC50 under setting [1] of 80 nM. In the case of `COc1cc(C(=O)N2C[C@H]3CC[C@@H]2[C@@H]3N)cc2nc(-c3cc4cccc(C5CN(C(C)=O)C5)c4n3C)n(Cc3cnn(C)c3)c12` [Example 214, 1-(3-(2-(5-((1R,4R,7R)-7-amino-2-azabicyclo[2.2.1]heptane-2-carbonyl)-7-methoxy-1-((1-methyl-1H-pyrazol-4-yl)methyl)-1H-benzo[d]imidazol-2-yl)-1-methyl-1H-indol-7-yl)azetidin-1-yl)ethan-1-one], the IC50 under setting [1] worked out at 155 nM. With `COc1cc(C(=O)N2C[C@H]3CC[C@@H]2[C@@H]3N)cc2nc(-c3cc4cccc(C5CCN(C(=O)C6CC67CC7)CC5)c4n3CC3CC3)n(C)c12` (stereo partly drawn) [Example 224, (4-(2-(5-((1R,4R,7R)-7-amino-2-azabicyclo[2.2.1]heptane-2-carbonyl)-7-methoxy-1-methyl-1H-benzo[d]imidazol-2-yl)-1-(cyclopropylmethyl)-1H-indol-7-yl)piperidin-1-yl)(spiro[2.2]pentan-1-yl)methanone], it took 78 nM to reach half-maximal inhibition under setting [1] (IC50). As to `COc1cc(C(=O)N2C[C@H]3CC[C@@H]2[C@@H]3N)cc2nc(-c3cc4cccc(Nc5cn(C)nc5C)c4n3CC3CC3(F)F)n(C)c12` (stereo partly drawn) [Example 178, ((1R,4R,7R)-7-amino-2-azabicyclo[2.2.1]heptan-2-yl)(2-(1-((2,2-difluorocyclopropyl)meth-yl)-7-((1,3-dimethyl-1H-pyrazol-4-yl)amino)-1H-indol-2-yl)-7-methoxy-1-methyl-1H-benzo[d]imidazol-5-yl)methanone], under setting [1], the IC50 was determined as 56 nM.

Consider `COc1cc(C(=O)N2C[C@H]3CC[C@@H]2[C@@H]3N)cc2nc(-c3cc4cccc(C5CCN(C(=O)Nc6cccc(F)c6)CC5)c4n3CC3CC3)n(C)c12` [Example 242, 4-(2-(5-((1R,4R,7R)-7-amino-2-azabicyclo[2.2.1]heptane-2-carbonyl)-7-methoxy-1-methyl-1H-benzo[d]imidazol-2-yl)-1-(cyclopropylmethyl)-1H-indol-7-yl)-N-(3-fluorophenyl)piperidine-1-carboxamide], for which the IC50 under setting [1] worked out at 30 nM. As for `COc1cc(C(=O)N2C[C@H]3CC[C@@H]2[C@@H]3N)cc2nc(-c3cc4cccc(-c5cnn(CC(C)(C)O)c5)c4n3CC3CC3)n(C)c12` [Example 140, ((1R,4R,7R)-7-amino-2-azabicyclo[2.2.1]heptan-2-yl)(2-(1-(cyclopropylmethyl)-7-(1-(2-hydroxy-2-methylpropyl)-1H-pyrazol-4-yl)-1H-indol-2-yl)-7-methoxy-1-methyl-1H-benzo[d]imidazol-5-yl)methanone], half-maximal inhibition under setting [1] (IC50) was put at 106 nM.

Take `COc1cc(C(=O)N2C[C@H]3CC[C@@H]2[C@@H]3N)cc2nc(-c3cc4cccc(-n5cc([C@H]6CC[C@H](N)CC6)nn5)c4n3CC3CC3)n(C)c12` [Example 109, (1R,4R,7R)-2-{2-[1-(cyclopropylmethyl)-7-{4-[(1r,4r)-4-aminocyclohexyl]-1H-1,2,3-triazol-1-yl}-1H-indol-2-yl]-7-methoxy-1-methyl-1H-1,3-benzodiazole-5-carbonyl}-2-azabicyclo[2.2.1]heptan-7-amine]: under “human PAD4, rapid-fire mass spectrum (RFMS) assay, read-out: hPAD4 RFMS IC50”, the IC50 is 175 nM. In turn, `COc1cc(C(=O)N2C[C@H]3CC[C@@H]2[C@@H]3N)cc2nc(-c3cc4cccc(CC5CNC5)c4n3CC3CC3)n(C)c12` [Example 26, (1R,4R,7R)-2-(2-{7-[(azetidin-3-yl)methyl]-1-(cyclopropylmethyl)-1H-indol-2-yl}-7-methoxy-1-methyl-1H-1,3-benzodiazole-5-carbonyl)-2-azabicyclo[2.2.1]heptan-7-amine] returned a half-maximal inhibitory concentration (IC50) under setting [1] of 41 nM.

Consider `COc1cc(C(=O)N2C[C@H]3CC[C@@H]2[C@@H]3N)cc2nc(-c3cc4cccc(C5CCN(C(N)=O)CC5)c4n3CC3CC3)n(C)c12` [Example 251, 4-(2-(5-((1R,4R,7R)-7-amino-2-azabicyclo[2.2.1]heptane-2-carbonyl)-7-methoxy-1-methyl-1H-benzo[d]imidazol-2-yl)-1-(cyclopropylmethyl)-1H-indol-7-yl)piperidine-1-carboxamide], for which inhibition under setting [1] was half-maximal at 20 nM (IC50).

`COc1cc2c(cc1-c1cccc3cc(-c4nc5cc(C(=O)N6C[C@H]7CC[C@@H]6[C@@H]7N)cc(OC)c5n4C)n(CC4CC4)c13)CCC(=O)N2` [Example 204, 6-(2-(5-((1R,4R,7R)-7-amino-2-azabicyclo[2.2.1]heptane-2-carbonyl)-7-methoxy-1-methyl-1H-benzo[d]imidazol-2-yl)-1-(cyclopropylmethyl)-1H-indol-7-yl)-7-methoxy-3,4-dihydroquinolin-2(1H)-one] displayed an IC50 under setting [1] of 139 nM. Same read-out and setting: next, `COc1cc(C(=O)N2C[C@H]3CC[C@@H]2[C@@H]3N)cc2nc(-c3cc4cccc(-c5ccc6[nH]c(=O)ccc6c5)c4n3CC3CC3)n(C)c12` [Example 100, 6-(2-{5-[(1R,4R,7R)-7-amino-2-azabicyclo[2.2.1]heptane-2-carbonyl]-7-methoxy-1-methyl-1H-1,3-benzodiazol-2-yl}-1-(cyclopropylmethyl)-1H-indol-7-yl)-1,2-dihydroquinolin-2-one]: 58 nM; `COc1cc(C(=O)N2CC3CCC2C3N)cc2nc(-c3cc4cccc(Nc5cnc(C#N)nc5)c4n3CC3CC3)n(C)c12` (stereo not drawn) [Example 167, 5-((2-(4-(7-amino-2-azabicyclo[2.2.1]heptane-2-carbonyl)-7-methoxy-1-methyl-1H-benzo[d]imidazol-2-yl)-1-(cyclopropyllmethyl)-1H-indol-7-yl)amino)pyrimidine-2-carbonitrile]: 138 nM. Same read-out and setting: under `COc1cc(C(=O)N2C[C@H]3CC[C@@H]2[C@@H]3N)cc2nc(-c3cc4cccc(-c5cccc(C(O)CO)c5)c4n3CC3CC3)n(C)c12` (stereo partly drawn) [Example 222, ((1R,4R,7R)-7-amino-2-azabicyclo[2.2.1]heptan-2-yl)(2-(1-(cyclopropylmethyl)-7-(3-(1,2-dihydroxyethyl)phenyl)-1H-indol-2-yl)-7-methoxy-1-methyl-1H-benzo[d]imidazol-5-yl)methanone] stands 94 nM; under `COc1cc(C(=O)N2C[C@H]3CC[C@@H]2[C@@H]3N)cc2nc(-c3cc4cccc(CCCN)c4n3CC3CC3)n(C)c12` [Example 11, (1R,4R,7R)-2-{2-[7-(3-aminopropyl)-1-(cyclopropylmethyl)-1H-indol-2-yl]-7-methoxy-1-methyl-1H-1,3-benzodiazole-5-carbonyl}-2-azabicyclo[2.2.1]heptan-7-amine], 48 nM; under `COCC(=O)N1CCC(c2cccc3cc(-c4nc5cc(C(=O)N6C[C@H](N)C[C@@H](F)C6)cc(OC)c5n4C)n(CC4CC4)c23)CC1` [Example 226, 1-(4-(2-(5-((3R,5R)-3-amino-5-fluoropiperidine-1-carbonyl)-7-methoxy-1-methyl-1H-benzo[d]imidazol-2-yl)-1-(cyclopropylmethyl)-1H-indol-7-yl)piperidin-1-yl)-2-methoxyethan-1-one], 53 nM.

Broadly, the IC50 is the concentration that gives 50% inhibition.
